From patent US10898481B2 (priority 2018, dated 2021)

Key:
[1] = target: hADORA1/CHO (hA1 expressing) cells (Homo sapiens (Human), UniProt P30542); assay: cell-based; conditions: FLIPR inhibition, 10 μM adenosine, read-out: cAMP & FLIPR IC50 (nM) hA1
hA2a/CHO = hA2a/CHO (Homo sapiens (Human), UniProt P29274); assay: cAMP inhibition assay in hA2a/CHO cells, 10 μM adenosine; type: cell-based; conditions: read-out: cAMP & FLIPR IC50 (nM) hA2a;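 further: compounds added to cells 30 min ahead of adenosine, then a further 30 min at 37 °C with adenosine before cAMP detection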
hA2a/CHO, sequence (P29274 whole entry): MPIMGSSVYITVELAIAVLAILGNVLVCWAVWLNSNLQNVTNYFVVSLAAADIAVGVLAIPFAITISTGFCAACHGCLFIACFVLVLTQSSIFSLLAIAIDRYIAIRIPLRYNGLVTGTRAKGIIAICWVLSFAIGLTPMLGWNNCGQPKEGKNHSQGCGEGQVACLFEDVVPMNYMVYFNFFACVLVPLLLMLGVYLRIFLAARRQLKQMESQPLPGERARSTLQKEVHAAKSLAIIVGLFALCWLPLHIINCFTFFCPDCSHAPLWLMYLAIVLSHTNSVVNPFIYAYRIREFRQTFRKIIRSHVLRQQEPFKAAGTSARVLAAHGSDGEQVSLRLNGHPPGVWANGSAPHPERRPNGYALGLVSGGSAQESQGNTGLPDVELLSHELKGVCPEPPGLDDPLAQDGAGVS
Protocol: (§1) hA2a/CHO, hA2b/CHO, hA3/CHO and mA2a/CHO (Genscript) were plated at 5×10^3 cells/well into 384-well polystyrene plates at the day of experiment. Compounds were pre-incubated with cells for 30 min at 37° C., 5% CO2. Then 10 μM adenosine was added to the cells and incubated for 30 min at 37° C., 5% CO2. Detection reagent (CISBIO) was added and the plates were incubated for 60 min at room temperature. The signal was captured by Envision.

hA2b/CHO = hA2b/CHO (Homo sapiens (Human), UniProt P29275); assay: cAMP inhibition assay in hA2b/CHO cells, 10 μM adenosine; type: cell-based; conditions: read-out: cAMP & FLIPR IC50 (nM) hA2b;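 further: cells exposed to compound 30 min at 37 °C, then stimulated with adenosine a further 30 min, cAMP read after 60 min at room temperature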
hA2b/CHO, sequence (P29275 whole entry): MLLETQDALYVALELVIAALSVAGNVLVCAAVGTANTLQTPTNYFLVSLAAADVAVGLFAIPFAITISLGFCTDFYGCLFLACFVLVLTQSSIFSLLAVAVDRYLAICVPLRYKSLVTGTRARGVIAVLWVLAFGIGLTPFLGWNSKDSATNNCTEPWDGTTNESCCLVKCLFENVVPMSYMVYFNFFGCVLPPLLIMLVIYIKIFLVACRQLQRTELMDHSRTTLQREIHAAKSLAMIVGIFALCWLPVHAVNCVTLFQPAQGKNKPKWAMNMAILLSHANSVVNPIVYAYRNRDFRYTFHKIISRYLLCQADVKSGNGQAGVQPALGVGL
Protocol: as §1

mA2a/CHO = mA2a/CHO (Mus musculus (Mouse), UniProt Q60613); assay: cAMP inhibition assay in mA2a/CHO cells, 10 μM adenosine; type: cell-based; conditions: read-out: cAMP & FLIPR IC50 (nM) mA2a;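 further: compounds preincubated 30 min at 37 °C before the adenosine challenge, then 30 min further stimulation, readout after 60 min detection reagent incubation at room temperature in 384-well plates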
mA2a/CHO, sequence (Q60613 whole entry): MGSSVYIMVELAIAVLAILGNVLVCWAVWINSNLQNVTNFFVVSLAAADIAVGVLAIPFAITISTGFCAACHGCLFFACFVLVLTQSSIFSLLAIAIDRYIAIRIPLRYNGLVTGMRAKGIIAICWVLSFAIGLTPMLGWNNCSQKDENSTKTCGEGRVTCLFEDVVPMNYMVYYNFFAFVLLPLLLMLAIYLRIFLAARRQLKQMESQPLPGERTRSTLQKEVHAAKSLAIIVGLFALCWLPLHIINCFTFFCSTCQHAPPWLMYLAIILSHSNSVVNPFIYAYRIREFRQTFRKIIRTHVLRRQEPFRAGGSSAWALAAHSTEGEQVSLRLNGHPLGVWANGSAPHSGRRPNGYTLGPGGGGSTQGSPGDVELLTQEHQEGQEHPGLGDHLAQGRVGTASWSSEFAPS
Protocol: as §1

hADORA1/CHO (hA1 expressing) cells, sequence (P30542 whole entry): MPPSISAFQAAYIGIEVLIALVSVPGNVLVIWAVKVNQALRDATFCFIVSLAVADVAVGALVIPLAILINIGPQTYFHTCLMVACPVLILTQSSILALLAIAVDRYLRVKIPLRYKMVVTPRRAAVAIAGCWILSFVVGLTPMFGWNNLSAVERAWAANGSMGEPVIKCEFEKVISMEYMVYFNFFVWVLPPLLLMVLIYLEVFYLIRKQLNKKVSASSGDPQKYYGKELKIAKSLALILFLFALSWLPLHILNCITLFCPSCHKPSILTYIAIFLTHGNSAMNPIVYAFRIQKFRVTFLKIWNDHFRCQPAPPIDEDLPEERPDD

Row | SMILES | IC50 [1] [nM] | IC50 (hA2a/CHO) [nM] | IC50 (hA2b/CHO) [nM] | IC50 (mA2a/CHO) [nM]
1 | COC(C)CNC(=O)c1nc(-c2ccc3ncc(C)n3c2)c(-c2ncco2)nc1N (single isomer, unassigned; isomer 2) [Example 241, 3-amino-N-(2-methoxypropyl)-6-(3-methylimidazo[1,2-a]pyridin-6-yl)-5-(oxazol-2-yl)pyrazine-2-carboxamide (isomer 2)] | 272 | 4 | 205 | 27
2 | Cc1cnc2ccc(-c3nc(C(=O)NC[C@H]4CCCN4)c(N)nc3-c3ncco3)cn12 [Example 122, (R)-3-amino-6-(3-methylimidazo[1,2-a]pyridin-6-yl)-5-(oxazol-2-yl)-N-(pyrrolidin-2-ylmethyl)pyrazine-2-carboxamide] | 10000 | 34 | 887 | 126
3 | Cn1cc(-c2nc(C(=O)NCc3c(F)cccc3P(C)(C)=O)c(N)nc2-c2ncco2)ccc1=O [Example 97, 3-amino-N-(2-(dimethylphosphoryl)-6-fluorobenzyl)-6-(1-methyl-6-oxo-1,6-dihydropyridin-3-yl)-5-(oxazol-2-yl) pyrazine-2-carboxamide] | 482 | 50 | 4880 | 40
4 | Cc1cnc2ccc(-c3nc(C(=O)NC[C@H](C)O)c(N)nc3-c3ncco3)cn12 [Example 146, (S)-3-amino-N-(2-hydroxypropyl)-6-(3-methylimidazo[1,2-a]pyridin-6-yl)-5-(oxazol-2-yl)pyrazine-2-carboxamide] | 10000 | 8.5 | 256 | 101
5 | Cn1cc(-c2nc(C(=O)NCc3c(F)cccc3Cl)c(N)nc2-c2ncco2)ccc1=O [Example 110, 3-amino-N-(2-chloro-6-fluorobenzyl)-6-(1-methyl-6-oxo-1,6-dihydropyridin-3-yl)-5-(oxazol-2-yl)pyrazine-2-carboxamide] | 31 | 0.7 | 11 | 1
6 | CCc1ccccc1CNC(=O)c1nc(-c2cc(C)nc(C)c2)c(-c2ccc(F)cc2)nc1N [Example 84, 3-amino-6-(2,6-dimethylpyridin-4-yl)-N-(2-ethylbenzyl)-5-(4-fluorophenyl) pyrazine-2-carboxamide] | 1200 | 18 | ≥ 10000 | 238
7 | COc1cc(F)ccc1CNC(=O)c1nc(-c2cc(C)nc(C)c2)c(-c2ccc(F)cc2)nc1N [Example 52, 3-amino-6-(2,6-dimethylpyridin-4-yl)-N-(4-fluoro-2-methoxybenzyl)-5-(4-fluorophenyl)pyrazine-2-carboxamide] | 2630 | 89 | ≥ 10000 | 5960
8 | CNc1cccnc1CNC(=O)c1nc(-c2ccc(=O)n(C)c2)c(-c2ncco2)nc1N [Example 46, 3-amino-6-(1-methyl-6-oxo-1,6-dihydropyridin-3-yl)-N-((3-(methylamino)pyridin-2-yl)methyl)-5-(oxazol-2-yl)pyrazine-2-carboxamide] | 488 | 102 | 1620 | 125
9 | CO[C@H]1C[C@H](NC(=O)c2nc(-c3ccc4ncc(C)n4c3)c(-c3ncco3)nc2N)C1 [Example 151, 3-amino-N-((1r,3r)-3-methoxycyclobutyl)-6-(3-methylimidazo [1,2-a]pyridin-6-yl)-5-(oxazol-2-yl) pyrazine-2-carboxamide] | 10000 | 0.8 | 193 | 12
10 | CCc1cnn2ccc(-c3nc(C(=O)NC[C@H]4CCCN4C)c(N)nc3-c3ncco3)cc12 [Example 128, (R)-3-amino-6-(3-ethylpyrazolo[1,5-a]pyridin-5-yl)-N-((1-methylpyrrolidin-2-yl)methyl)-5-(oxazol-2-yl)pyrazine-2-carboxamide] | 10000 | 63 | ≥ 10000 | 410
11 | Cc1cnc2ccc(-c3nc(C(=O)NCC4CN(C)CCO4)c(N)nc3-c3ccc(F)cc3)cn12 (single isomer, unassigned; isomer 2) [Example 250, 3-amino-5-(4-fluorophenyl)-6-(3-methylimidazo[1,2-a]pyridin-6-yl)-N-((4-methylmorpholin-2-yl)methyl) pyrazine-2-carboxamide (isomer 2)] | 36 | 5 | 212 | 31
12 | Cc1cnc2ccc(-c3nc(C(=O)N[C@H]4CCCOC4)c(N)nc3-c3ncco3)cn12 (single isomer, unassigned; isomer 1) [Example 163, 3-amino-6-(3-methylimidazo[1,2-a]pyridin-6-yl)-5-(oxazol-2-yl)-N-(tetrahydro-2H-pyran-3-yl)pyrazine-2-carboxamide (isomer 1)] | > 10000 | 3.28 | 387 | 22
13 | CNc1cccc(CNC(=O)c2nc(-c3ccc4nccn4c3)c(-c3ncco3)nc2N)n1 [Example 99, 3-amino-6-(imidazo[1,2-a]pyridin-6-yl)-N-((6-(methylamino)pyridin-2-yl)methyl)-5-(oxazol-2-yl)pyrazine-2-carboxamide] | 171 | 5.1 | 200 | 35
14 | Cc1cnc2ccc(-c3nc(C(=O)NC[C@@H]4CC(F)(F)CN4C)c(N)nc3-c3ncco3)cn12 [Example 161, (S)-3-amino-N-((4,4-difluoro-1-methylpyrrolidin-2-yl)methyl)-6-(3-methylimidazo[1,2-a]pyridin-6-yl)-5-(oxazol-2-yl)pyrazine-2-carboxamide] | 34 | 0.95 | 98 | 0.8
15 | Cc1cnc2ccc(-c3nc(C(=O)NCC4CN(C)CCO4)c(N)nc3-c3ccc(F)cc3)cn12 (single isomer, unassigned; isomer 1) [Example 246, 3-amino-5-(4-fluorophenyl)-6-(3-methylimidazo[1,2-a]pyridin-6-yl)-N-((4-methylmorpholin-2-yl)methyl) pyrazine-2-carboxamide (isomer 1)] | 44 | 17 | 1100 | 67
16 | Cc1cnc2ccc(-c3nc(C(=O)NC4CC4)c(N)nc3-c3ncco3)cn12 [Example 245, 3-amino-N-cyclopropyl-6-(3-methylimidazo[1,2-a]pyridin-6-yl)-5-(oxazol-2-yl)pyrazine-2-carboxamide] | 87 | 3.8 | 247 | 39
17 | Cc1cnc2ccc(-c3nc(C(=O)NCc4cccc(N5CC(N(C)C)C5)n4)c(N)nc3-c3ncco3)cn12 [Example 111, 3-amino-N-((6-(3-(dimethylamino)azetidin-1-yl)pyridin-2-yl)methyl)-6-(3-methylimidazo[1,2-a]pyridin-6-yl)-5-(oxazol-2-yl)pyrazine-2-carboxamide] | 2810 | 0.5 | 81 | 6.5
18 | Cc1cnc2ccc(-c3nc(C(=O)NCC4CC4)c(N)nc3-c3ncco3)cn12 [Example 155, 3-amino-N-(cyclopropylmethyl)-6-(3-methylimidazo[1,2-a]pyridin-6-yl)-5-(oxazol-2-yl)pyrazine-2-carboxamide] | 3650 | 0.6 | 188 | 12
19 | Cc1cnc2ccc(-c3nc(C(=O)NCCN(C)C)c(N)nc3-c3ncco3)cn12 [Example 153, 3-amino-N-(2-(dimethylamino)ethyl)-6-(3-methylimidazo[1,2-a]pyridin-6-yl)-5-(oxazol-2-yl)pyrazine-2-carboxamide] | 10000 | 19 | 592 | 120
20 | Cn1cc(-c2nc(CNC(=O)c3ncccc3OC(F)F)c(N)nc2-c2ccc(F)cc2)ccc1=O [Example 21, N-[[3-amino-5-(4-fluorophenyl)-6-(1-methyl-6-oxo-1,6-dihydropyridin-3-yl)pyrazin-2-yl]methyl]-3-(difluoromethoxy)pyridine-2-carboxamide] | 18 | 98 | 638 | 73
21 | Cc1cnc2ccc(-c3nc(C(=O)NCC4(C)CCOC4)c(N)nc3-c3ncco3)cn12 (single isomer, unassigned; isomer 1) [Example 251, 3-amino-6-(3-methylimidazo[1,2-a]pyridin-6-yl)-N-((3-methyltetrahydrofuran-3-yl)methyl)-5-(oxazol-2-yl)pyrazine-2-carboxamide (isomer 1)] | 425 | 4.7 | 657 | 34
22 | Cc1cnc2ccc(-c3nc(C(=O)NCC4(C)CCOC4)c(N)nc3-c3ncco3)cn12 (single isomer, unassigned; isomer 2) [Example 252, 3-amino-6-(3-methylimidazo[1,2-a]pyridin-6-yl)-N-((3-methyltetrahydrofuran-3-yl)methyl)-5-(oxazol-2-yl)pyrazine-2-carboxamide (isomer 2)] | 260 | 2.9 | 821 | 30
23 | CN1CCCC1CNC(=O)c1nc(-c2ccc3ncc(Cl)n3c2)c(-c2ncco2)nc1N (stereo in doubt) [Cmpd. 209, 3-amino-6-[3-chloroimidazo[1,2-a]pyridin-6-yl]-N-[[(2S)-1-methylpyrrolidin-2-yl]methyl]-5-(1,3-oxazol-2-yl)pyrazine-2-carboxamide] | > 10000 | 14 | 1260 | 134
24 | CN1CCCC1CNC(=O)c1nc(-c2ccc3ncc(C(F)(F)F)n3c2)c(-c2ncco2)nc1N (single isomer, unassigned) [Cmpd. 206] | 2490 | 5.3 | 707 | 50
